Activity calls are given as the source filed them. No cut-off for these calls is given here.
Experiments:
Bel-7402 [1] = assay: Antitumor activity against human Bel-7402 cells xenografted in BAlb/c (nu/nu) mouse assessed as inhibition rate at 30 mg/kg, po daily measured after 14 days; format: functional; settings: Bel-7402, 336 h, time 14 day
Bel-7402 [2] = assay: Antitumor activity against human Bel-7402 cells xenografted in BAlb/c (nu/nu) mouse assessed as T/C ratio at 30 mg/kg, po daily measured after 14 days; format: functional; settings: time 14 day
Bel-7402 [3] = assay: Antitumor activity against human Bel-7402 cells xenografted in Balb/c (nu/nu) mouse assessed as tumor weight at 30 mg/kg, po qd after 14 days (Rvb=0.65 +/- 0.06 g); format: functional; settings: time 14 day
Bel-7402 [4] = assay: Antitumor activity against human Bel-7402 cells xenografted in Balb/c (nu/nu) mouse assessed as relative tumor volume at 30 mg/kg, po qd after 14 days (Rvb=25.69+/-2.73); format: functional; settings: time 14 day
[5] = biological target: T1, Phosphatidylinositol 4,5-bisphosphate 3-kinase catalytic subunit delta isoform (Homo sapiens, UniProt O00329); assay: Inhibition of PI3Kdelta (unknown origin) using PIP2 as substrate incubated for 1 hr in presence of ATP by ADP-Glo assay
T1 sequence (O00329 whole entry): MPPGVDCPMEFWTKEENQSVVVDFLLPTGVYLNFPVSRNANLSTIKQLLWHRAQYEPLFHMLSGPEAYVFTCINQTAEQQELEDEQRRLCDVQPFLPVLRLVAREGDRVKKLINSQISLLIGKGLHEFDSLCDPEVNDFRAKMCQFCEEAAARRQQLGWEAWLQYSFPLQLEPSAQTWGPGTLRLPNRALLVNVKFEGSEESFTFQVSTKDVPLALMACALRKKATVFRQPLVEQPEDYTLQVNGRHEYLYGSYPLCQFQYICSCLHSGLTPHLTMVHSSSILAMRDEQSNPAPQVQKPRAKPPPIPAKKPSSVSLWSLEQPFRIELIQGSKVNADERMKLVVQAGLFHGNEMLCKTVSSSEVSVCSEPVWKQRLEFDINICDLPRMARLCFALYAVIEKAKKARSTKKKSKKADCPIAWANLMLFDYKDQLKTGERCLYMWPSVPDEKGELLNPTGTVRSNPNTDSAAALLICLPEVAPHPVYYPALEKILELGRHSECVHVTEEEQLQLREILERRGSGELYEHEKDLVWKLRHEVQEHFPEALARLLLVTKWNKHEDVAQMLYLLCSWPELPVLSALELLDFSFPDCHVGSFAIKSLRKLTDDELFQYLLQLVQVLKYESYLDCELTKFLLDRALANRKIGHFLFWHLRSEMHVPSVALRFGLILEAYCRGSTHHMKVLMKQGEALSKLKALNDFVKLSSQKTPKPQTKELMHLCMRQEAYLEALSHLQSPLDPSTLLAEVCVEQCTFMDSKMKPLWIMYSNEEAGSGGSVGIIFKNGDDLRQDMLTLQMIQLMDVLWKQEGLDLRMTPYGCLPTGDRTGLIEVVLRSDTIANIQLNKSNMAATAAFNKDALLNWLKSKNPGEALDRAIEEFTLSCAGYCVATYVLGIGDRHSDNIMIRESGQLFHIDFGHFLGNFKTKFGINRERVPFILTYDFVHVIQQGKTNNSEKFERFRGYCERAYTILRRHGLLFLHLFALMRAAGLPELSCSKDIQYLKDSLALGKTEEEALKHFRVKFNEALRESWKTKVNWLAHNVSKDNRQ

[6] = biological target: Phosphatidylinositol 4,5-bisphosphate 3-kinase catalytic subunit alpha isoform (Homo sapiens, UniProt P42336); assay: Inhibition of PI3Kalpha (unknown origin) using PIP2 as substrate incubated for 1 hr in presence of ATP by ADP-Glo assay
Chain of Phosphatidylinositol 4,5-bisphosphate 3-kinase catalytic subunit alpha isoform (P42336 whole entry, canonical isoform): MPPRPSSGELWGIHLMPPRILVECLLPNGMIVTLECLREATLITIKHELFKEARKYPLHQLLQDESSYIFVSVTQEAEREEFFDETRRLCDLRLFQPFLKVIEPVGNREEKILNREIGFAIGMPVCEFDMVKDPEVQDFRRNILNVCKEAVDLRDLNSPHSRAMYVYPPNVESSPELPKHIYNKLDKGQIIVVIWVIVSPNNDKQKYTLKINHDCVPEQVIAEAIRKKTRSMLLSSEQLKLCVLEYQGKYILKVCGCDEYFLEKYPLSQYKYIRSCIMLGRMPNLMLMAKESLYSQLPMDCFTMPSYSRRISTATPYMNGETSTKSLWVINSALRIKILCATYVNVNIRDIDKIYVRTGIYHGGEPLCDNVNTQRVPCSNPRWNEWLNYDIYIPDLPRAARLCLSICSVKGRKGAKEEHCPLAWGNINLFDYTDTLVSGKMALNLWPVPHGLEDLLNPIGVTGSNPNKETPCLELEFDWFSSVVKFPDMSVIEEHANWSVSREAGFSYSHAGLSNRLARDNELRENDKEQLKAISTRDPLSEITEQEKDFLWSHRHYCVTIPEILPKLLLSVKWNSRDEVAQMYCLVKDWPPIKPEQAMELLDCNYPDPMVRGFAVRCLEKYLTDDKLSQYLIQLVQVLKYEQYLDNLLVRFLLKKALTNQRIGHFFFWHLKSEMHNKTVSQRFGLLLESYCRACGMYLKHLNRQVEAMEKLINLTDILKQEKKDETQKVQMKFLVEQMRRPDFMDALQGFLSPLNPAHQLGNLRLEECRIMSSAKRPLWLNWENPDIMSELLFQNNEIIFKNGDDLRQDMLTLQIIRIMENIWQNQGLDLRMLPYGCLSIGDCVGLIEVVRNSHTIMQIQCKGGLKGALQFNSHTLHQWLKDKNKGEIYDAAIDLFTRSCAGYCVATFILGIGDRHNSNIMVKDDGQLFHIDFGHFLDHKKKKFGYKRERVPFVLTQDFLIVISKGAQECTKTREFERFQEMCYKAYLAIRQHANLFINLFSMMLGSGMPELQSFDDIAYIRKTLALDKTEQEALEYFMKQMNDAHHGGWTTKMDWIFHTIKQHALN

[7] = biological target: Phosphatidylinositol 4,5-bisphosphate 3-kinase catalytic subunit beta isoform (Homo sapiens, UniProt P42338); assay: Inhibition of PI3Kbeta (unknown origin) using PIP2 as substrate incubated for 1 hr in presence of ATP by ADP-Glo assay
Chain of Phosphatidylinositol 4,5-bisphosphate 3-kinase catalytic subunit beta isoform (P42338 whole entry, canonical isoform): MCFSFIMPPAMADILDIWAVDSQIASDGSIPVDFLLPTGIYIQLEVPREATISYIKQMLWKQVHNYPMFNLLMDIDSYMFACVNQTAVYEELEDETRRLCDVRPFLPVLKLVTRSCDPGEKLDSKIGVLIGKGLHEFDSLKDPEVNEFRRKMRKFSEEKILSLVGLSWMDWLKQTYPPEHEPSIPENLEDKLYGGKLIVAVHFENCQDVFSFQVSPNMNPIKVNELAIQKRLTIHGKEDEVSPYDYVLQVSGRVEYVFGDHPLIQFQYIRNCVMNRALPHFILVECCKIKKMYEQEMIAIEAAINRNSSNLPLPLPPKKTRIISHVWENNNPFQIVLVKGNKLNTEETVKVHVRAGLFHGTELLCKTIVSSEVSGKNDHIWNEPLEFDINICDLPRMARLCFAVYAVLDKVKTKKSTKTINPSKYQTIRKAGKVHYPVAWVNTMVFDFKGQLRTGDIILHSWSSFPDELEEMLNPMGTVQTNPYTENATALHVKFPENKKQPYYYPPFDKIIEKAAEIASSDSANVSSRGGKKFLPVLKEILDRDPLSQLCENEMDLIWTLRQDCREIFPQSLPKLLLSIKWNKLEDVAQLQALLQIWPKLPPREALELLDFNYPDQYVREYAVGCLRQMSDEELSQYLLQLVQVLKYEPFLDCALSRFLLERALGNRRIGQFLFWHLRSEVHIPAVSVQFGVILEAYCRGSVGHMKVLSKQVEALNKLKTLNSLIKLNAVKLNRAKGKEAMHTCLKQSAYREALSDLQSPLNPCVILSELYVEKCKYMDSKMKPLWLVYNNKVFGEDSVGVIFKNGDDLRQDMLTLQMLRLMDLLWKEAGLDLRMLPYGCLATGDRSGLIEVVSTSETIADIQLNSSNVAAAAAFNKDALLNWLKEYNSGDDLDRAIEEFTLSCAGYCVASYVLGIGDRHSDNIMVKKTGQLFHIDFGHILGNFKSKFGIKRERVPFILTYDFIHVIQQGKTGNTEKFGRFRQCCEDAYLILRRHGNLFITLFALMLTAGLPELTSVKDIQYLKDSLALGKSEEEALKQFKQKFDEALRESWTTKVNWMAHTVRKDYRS

[8] = biological target: Phosphatidylinositol 4,5-bisphosphate 3-kinase catalytic subunit gamma isoform (Homo sapiens, UniProt P48736); assay: Inhibition of PI3Kgamma (unknown origin) using PIP2 as substrate incubated for 1 hr in presence of ATP by ADP-Glo assay
Chain of Phosphatidylinositol 4,5-bisphosphate 3-kinase catalytic subunit gamma isoform (P48736 whole entry, canonical isoform): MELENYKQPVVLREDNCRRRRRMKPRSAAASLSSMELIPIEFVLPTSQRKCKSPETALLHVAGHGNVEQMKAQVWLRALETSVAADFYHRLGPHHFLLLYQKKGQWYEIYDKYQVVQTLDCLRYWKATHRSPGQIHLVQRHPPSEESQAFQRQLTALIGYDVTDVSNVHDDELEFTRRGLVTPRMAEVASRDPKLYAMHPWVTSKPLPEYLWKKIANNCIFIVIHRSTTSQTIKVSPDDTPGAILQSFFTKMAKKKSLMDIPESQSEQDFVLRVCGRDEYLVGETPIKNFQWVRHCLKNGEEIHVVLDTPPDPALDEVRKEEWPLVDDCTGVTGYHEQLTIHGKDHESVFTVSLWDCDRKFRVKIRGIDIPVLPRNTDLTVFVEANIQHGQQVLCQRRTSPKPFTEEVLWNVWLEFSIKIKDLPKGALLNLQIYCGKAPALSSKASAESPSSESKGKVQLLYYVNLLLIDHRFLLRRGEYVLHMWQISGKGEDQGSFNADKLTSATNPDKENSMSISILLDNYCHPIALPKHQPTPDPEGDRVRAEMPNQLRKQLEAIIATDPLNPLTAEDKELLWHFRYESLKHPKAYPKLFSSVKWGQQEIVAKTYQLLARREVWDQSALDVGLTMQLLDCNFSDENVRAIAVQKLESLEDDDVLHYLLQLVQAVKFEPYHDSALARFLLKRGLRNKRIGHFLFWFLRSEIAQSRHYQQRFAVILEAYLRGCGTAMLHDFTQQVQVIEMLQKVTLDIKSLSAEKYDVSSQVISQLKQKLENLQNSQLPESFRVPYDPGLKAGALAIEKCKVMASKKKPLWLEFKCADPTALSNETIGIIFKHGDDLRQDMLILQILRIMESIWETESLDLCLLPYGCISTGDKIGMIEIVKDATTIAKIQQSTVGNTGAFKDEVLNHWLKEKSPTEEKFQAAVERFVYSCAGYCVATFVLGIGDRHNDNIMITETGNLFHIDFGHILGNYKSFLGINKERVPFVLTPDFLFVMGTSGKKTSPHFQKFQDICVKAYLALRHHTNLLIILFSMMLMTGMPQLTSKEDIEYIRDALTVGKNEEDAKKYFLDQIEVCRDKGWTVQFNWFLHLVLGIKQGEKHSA

Bel-7402 [9] = assay: Antiproliferative activity against human Bel-7402 cells assessed as inhibition of cell growth incubated for 72 hrs by SRB assay; format: functional, cell-based; settings: Bel-7402, 72 h
Hep 3B2 [10] = assay: Antiproliferative activity against human Hep3B cells assessed as inhibition of cell growth incubated for 72 hrs by SRB assay; format: functional, cell-based
Bel-7402 [11] = assay: cells; settings: Homo sapiens, Bel-7402, 72 h, read-out: INH
HepG2 [12] = assay: cells; settings: Homo sapiens, HepG2, 72 h, read-out: INH
Hep 3B2 [13] = assay: cells; settings: Homo sapiens, Hep3B, 72 h, read-out: INH
HepG2 [14] = assay: cells; settings: Homo sapiens, HepG2, 72 h
Description: Antiproliferative activity against human HepG2 cells assessed as inhibition of cell growth incubated for 72 hrs by SRB assay

HepG2 [15] = assay: Induction of apoptosis in human HepG2 cells assessed as increase in expression of cleaved caspase-3 at 1.5625 to 50 uM incubated for 24 hrs by Western blotting analysis; format: functional, cell-based; settings: dose 1.5625-50 µM, DDE = dose-dependent effect
[16] = Toxicity in Balb/c (nu/nu) mouse xenografted with human Bel-7402 cells assessed as change in body weight at 20 to 40 mg/kg, po daily after 14 days; format: organism-based; settings: in vivo, 336 h, dose 20-40 mg/kg, time 14 day
HepG2 [17] = assay: Induction of apoptosis in human HepG2 cells assessed as increase in expression of cleaved PARP at 1.5625 to 50 uM incubated for 24 hrs by Western blotting analysis; format: functional, cell-based; settings: dose 1.5625-50 µM, DDE = dose-dependent effect
Bel-7402 [18] = assay: Induction of apoptosis in human Bel-7402 cells assessed as increase in apoptotic cells at 12.5 to 50 uM for 24 hrs by TUNEL staining method; format: functional, cell-based; settings: dose 12.5-50 µM
Bel-7402 [19] = assay: Induction of apoptosis in human Bel-7402 cells assessed as decrease in EGf dependent Akt phosphorylation at serine 473 residue at 0.3 to 10 uM measured after 24 hrs by western blotting analysis; format: functional, cell-based; settings: dose 0.3-10 µM, DDE = dose-dependent effect
Bel-7402 [20] = assay: Induction of apoptosis in human Bel-7402 cells assessed as decrease in EGf dependent Akt phosphorylation at threonine 308 residue at 0.3 to 10 uM measured after 24 hrs by western blotting analysis; format: functional, cell-based; settings: dose 0.3-10 µM, DDE = dose-dependent effect
HepG2 [21] = assay: Induction of apoptosis in human HepG2 cells assessed as decrease in EGf dependent Akt phosphorylation at serine 473 residue at 0.3 to 10 uM measured after 24 hrs by western blotting analysis; format: functional, cell-based; settings: dose 0.3-10 µM, DDE = dose-dependent effect
HepG2 [22] = assay: Induction of apoptosis in human HepG2 cells assessed as decrease in EGf dependent Akt phosphorylation at threonine 308 residue at 0.3 to 10 uM measured after 24 hrs by western blotting analysis; format: functional, cell-based; settings: dose 0.3-10 µM, DDE = dose-dependent effect
Bel-7402 [23] = assay: Induction of apoptosis in human Bel-7402 cells xenografted in Balb/c (nu/nu) mouse assessed as increase in expression of cleaved PARP at 20 to 40 mg/kg, po daily after 14 days by western blot analysis; format: functional, organism-based; settings: dose 20-40 mg/kg, time 14.0 day
Bel-7402 [24] = assay: Induction of apoptosis in human Bel-7402 cells xenografted in Balb/c (nu/nu) mouse assessed as increase in expression of cleaved caspase-3 at 20 to 40 mg/kg, po daily after 14 days by western blot analysis; format: functional, organism-based; settings: dose 20-40 mg/kg, time 14.0 day
Bel-7402 [25] = assay: Induction of apoptosis in human Bel-7402 cells xenografted in Balb/c (nu/nu) mouse assessed as decrease in phosphorylation of Akt at serine 473 residue at 20 to 40 mg/kg, po daily after 14 days by western blot analysis; format: functional, organism-based; settings: dose 20-40 mg/kg, time 14.0 day
Bel-7402 [26] = assay: Induction of apoptosis in human Bel-7402 cells xenografted in Balb/c (nu/nu) mouse assessed as increase in apoptotic cells at 20 to 40 mg/kg, po daily after 14 days by DAPI staining based assay; format: functional, organism-based; settings: dose 20-40 mg/kg, time 14.0 day
Bel-7402 [27] = assay: Induction of apoptosis in human Bel-7402 cells xenografted in Balb/c (nu/nu) mouse assessed as decrease in cell proliferation at 20 to 40 mg/kg, po daily after 14 days by Ki-67 staining based immunohistochemical analysis; format: functional, organism-based; settings: dose 20-40 mg/kg, time 14.0 day
Bel-7402 [28] = assay: Induction of apoptosis in human Bel-7402 cells assessed as increase in expression of cleaved PARP at 1.5625 to 50 uM incubated for 24 hrs by Western blotting analysis; format: functional, cell-based; settings: dose 1.5625-50 µM, DDE = dose-dependent effect
Bel-7402 [29] = assay: Induction of apoptosis in human Bel-7402 cells assessed as increase in expression of cleaved caspase-3 at 1.5625 to 50 uM incubated for 24 hrs by Western blotting analysis; format: functional, cell-based; settings: dose 1.5625-50 µM, DDE = dose-dependent effect
Bel-7402 [30] = assay: Induction of apoptosis in human Bel-7402 cells assessed as increase in apoptotic cells at 50 uM for 24 hrs by TUNEL staining method; format: functional, cell-based
Bel-7402 [31] = assay: animal or person; settings: Mus musculus, Bel-7402, po, 336 h, read-out: INH

| Compound | IC50 [5] [µM] | IC50 [6] [µM] | IC50 [7] [µM] | IC50 [8] [µM] | IC50 (Bel-7402 [9]) [µM] | IC50 (HepG2 [14]) [µM] | IC50 (Hep 3B2 [10]) [µM] | inhibition at 10 µM (Bel-7402 [11]) [%] | inhibition at 10 µM (HepG2 [12]) [%] | inhibition at 10 µM (Hep 3B2 [13]) [%] | further results |
| --- | --- | --- | --- | --- | --- | --- | --- | --- | --- | --- | --- |
| CNC(=O)c1cc(Oc2ccc(NC(=O)Nc3ccc(Cl)c(C(F)(F)F)c3)cc2)ccn1 [SORAFENIB] | – | – | – | – | – | – | – | – | – | – | inhibition in vivo at 30 mg/kg (Bel-7402 [1]): 51.3%; T/C (Bel-7402 [2]): 45.13%; Activity (Bel-7402 [3]): 0.32 g; Activity (Bel-7402 [4]): 11.6 |
| CC[C@H](Nc1ncnc2[nH]cnc12)c1nc2cccc(F)c2c(=O)n1-c1ccccc1 [IDELALISIB] | – | – | – | – | 66.2 | 89.5 | 77.5 | 9 | 20 | 21 | Activity (Bel-7402 [30]): Active; inhibition in vivo at 40 mg/kg (Bel-7402 [31]): 44.6% |
| C[C@H](Nc1ncnc2[nH]cnc12)c1nn(-c2cccnc2)c2cc(F)ccc12 | 0.038 | – | – | – | > 40 | 37.5 | 34.5 | 8 | 23 | 20 | – |

Now from value to molecule, other results behind:

| IC50 [5] [µM] | IC50 [6] [µM] | IC50 [7] [µM] | IC50 [8] [µM] | IC50 (Bel-7402 [9]) [µM] | IC50 (HepG2 [14]) [µM] | Compound | IC50 (Hep 3B2 [10]) [µM] | inhibition at 10 µM (Bel-7402 [11]) [%] | inhibition at 10 µM (HepG2 [12]) [%] | inhibition at 10 µM (Hep 3B2 [13]) [%] | further results |
| --- | --- | --- | --- | --- | --- | --- | --- | --- | --- | --- | --- |
| 0.0012 | 0.576 | 0.031 | > 1 | 5.59 | 4.77 | CC[C@H](Nc1nc(N)nc(N)c1C#N)c1nn(-c2cccnc2)c2cc(Cl)ccc12 | 12.1 | 56 | 59 | 56 | – |
| – | > 1 | 0.041 | 0.275 | 1.36 | 0.53 | C[C@H](Nc1nc(N)nc(N)c1C#N)c1nn(-c2cccnc2)c2cc(Cl)ccc12 | 1.09 | – | – | – | Activity (HepG2 [15]): Dde; Activity [16]: Non-Toxic; Activity (HepG2 [17]): Dde; Activity (Bel-7402 [18]): Active; Activity (Bel-7402 [19]): Dde; Activity (Bel-7402 [20]): Dde; Activity (HepG2 [21]): Dde; Activity (HepG2 [22]): Dde; Activity (Bel-7402 [23]): Active; Activity (Bel-7402 [24]): Active; Activity (Bel-7402 [25]): Active; Activity (Bel-7402 [26]): Active; Activity (Bel-7402 [27]): Active; Activity (Bel-7402 [28]): Dde; Activity (Bel-7402 [29]): Dde |
| 0.0021 | > 1 | 0.047 | > 1 | 4.46 | 1.88 | C[C@H](Nc1nc(N)nc(N)c1C#N)c1nn(-c2cccc(S(C)(=O)=O)c2)c2cc(Cl)ccc12 | 5.11 | 47 | 56 | 72 | – |

Source: ChEMBL document CHEMBL5154755, “Discovery of Novel Indazoles as Potent and Selective PI3Kδ Inhibitors with High Efficacy for Treatment of Hepatocellular Carcinoma” (J Med Chem, 2022)
